Results from US9463186B2, “Treatment for dopaminergic disorders” (Northwestern University, priority 2013, dated 2016).
Entries after “also recorded” stand apart in the source; their conditions may differ.

Columns and labels:
[1] = tested on: L-type calcium channels (Cav1.3) of SNc dopaminergic neurons; assay: Whole cell patch clamp recordings of dopaminergic neurons in brain slices (Example 2); assay type: cell-based, mouse; details: for inhibition of L-type calcium channels: dihydropyridine antagonists, brain slice, FIG. 1 and FIG. 4
SNc dopaminergic neurons [2] = details: Fluo4 and 2PLSM; FIG. 6
SNc dopaminergic neurons [3] = details: brain slice taken following rasagiline treatment; FIG. 6
SNc DA neurons [4] = details: acute treatment at the time of measurement; FIG. 7c-d
SNc DA neurons [5] = assay: Mito-roGFP imaging of mitochondrial oxidant stress after chronic drug treatment by s.c. osmotic minipumps; assay type: in vivo, mice; details: for dose dependence of the effect of chronic administration on mitochondrial oxidant stress: 1 week via s.c. osmotic minipump, isradipine 0.03, 0.3, 3 mg/kg/day, rasagiline 1 and 3 mg/kg/day, FIG. 8; for mitochondrial oxidant stress in SNc dopaminergic neurons, chronic treatment: chronic (1 week) s.c. osmotic minipumps, FIG. 7d

| Compound | inhibition of L-type calcium channels [1] | dose dependence of the effect of chronic administration on mitochondrial oxidant stress (SNc DA neurons [5]) | mitochondrial oxidant stress in SNc dopaminergic neurons, chronic treatment (SNc DA neurons [5]) | also measured |
| --- | --- | --- | --- | --- |
| COCCOC(=O)C1=C(C)NC(C)=C(C(=O)OC(C)C)C1c1cccc([N+](=O)[O-])c1 (stereo not drawn) [nimodipine, isopropyl 2-methoxyethyl 1,4-dihydro-2,6-dimethyl-4-(m-nitrophenyl)-3,5-pyridinedicarboxylate] | inhibited |  |  | autonomous pacemaking of dopaminergic neurons ([1]; tissue slice from an adult, FIGS. 1a-d): inhibits autonomous pacemaking |
| NC1=N[C@H](O)[C@H]2[C@H]3O[C@]4(O)O[C@@H]([C@@H](O)[C@@]2(N1)[C@@H]4O)[C@]3(O)CO [tetrodotoxin] |  |  |  | spikes and underlying oscillations that drive pacemaking [1]: eliminates spikes but not the underlying oscillations |
| C#CCN[C@@H]1CCc2ccccc21 [rasagiline] |  | dose-dependent | diminished; also recorded: further lowers stress | calcium entry linked to pacemaking (intracellular calcium oscillations) (SNc dopaminergic neurons [2]): no effect; pacemaking of SNc dopaminergic neurons (SNc dopaminergic neurons [3]): no effect on pacemaking; mitochondrial oxidant stress in SNc dopaminergic neurons, acute treatment (SNc DA neurons [4]): lowers mitochondrial oxidant stress |
| COC(=O)C1=C(C)NC(C)=C(C(=O)OC(C)C)C1c1cccc2nonc12 (stereo not drawn) [isradipine, 3,5-pyridinedicarboxylic acid, 4-(4-benzofurazanyl)-1,4-dihydro-2,6-dimethyl-, methyl 1-methylethyl ester] | inhibited | dose-dependent | diminished | pacemaking during sustained blockade of Cav1.3 channels ([1]; adult SNc dopaminergic neuron, before, during and after application, FIG. 4): restores pacemaking and dopaminergic neuron cell function through an altered pacemaking mechanism |
